# Reference: patent publication US20120178147A1, “MICROBIAL CULTURES AND METHODS FOR ANAEROBIC BIOREMEDIATION” (priority 2009, published 2012)
# Entries after “also recorded” stand apart in the source; their conditions may differ.
# Experiments:
# [1] = anaerobic conditions, within 70 days; cited from earlier work
# Dehalococcoides = experiment: qRT-PCR of Dehalococcoides 16S rRNA genes in DehaloR̂2 cultures; assay type: cell-based; settings: for effect on growth / gene copy number of Dehalococcoides in DehaloR̂2 cultures: 1.5 μM TCC or 35 μM TCS
# Method: Quantitative real-time PCR (qRT-PCR) was performed for enumeration of general 16S rRNA genes and Dehalococcoides 16S rRNA genes in culture DehaloR̂2 and Bio-Dechlor INOCULUM. The primers used for general 16S rRNA genes were Bac1055F (5′-ATG GYT GTC GTC ACCT-3′) and Bac1392R (5′-ACG GGC GGT GTG TAC-3′) (Ritalahti et al., 2006), and the probe was Bac16sTaq (FAM-CAA CGA GCG CAA CCC/3-BHQ-1/). The final volume of PCR reactions was 10 μL, and the final concentration of each chemical in a single reaction tube was: 1× RealMasterMix (Fisher Scientific, Pittsburgh, Pa.), 300 nM Probe, 300 nM each Primer, and 130 nM DNA samples. The PCR conditions were as follows: 2 min at 95° C. followed by 40 cycles of 10 s at 95° C., 20 s at 56° C. and 20 s at 68° C. The primers used for Dehalococcoides 16S rRNA genes were Dhc1200F (5′-CTGGAGCTAATCCCCAAAGCT-3′) and Dhc1271R (5′-CAA CTT CAT GCA GGC GGG-3′), and the probe was Dhc1240Pr (FAM-TCCTCAGTTCGGATTGCAGGC TGAA/3-BHQ-1) (He et al., 2003b). The final volume of PCR reactions was 10 μL, and the final concentration of each chemical in a single reaction tube was: 1× RealMasterMix (Fisher Scientific, Pittsburgh, Pa.), 200 nM Probe, 700 nM each Primer, and 130 nM DNA samples. The PCR conditions were as follows: 2 min at 95° C. followed by 40 cycles of 15 s at 95° C., 20 s at 58° C. and 20 s at 68° C.
# Quantitative Real time PCR (qRT-PCR) was carried out in a spectrofluorimetric thermal cycler (Master cycler, epgradient S, Eppendorf). Calibration curves were performed in triplicate and a linear range of 6 orders of magnitude was obtained. Plasmids containing Dehalococcoides strain BAV1 16S rRNA genes were used as standards to construct general 16S rRNA genes and Dehalococcoides 16S rRNA genes calibration curves. The slopes of the calibration curves for general 16S rRNA genes and Dehalococcoides 16S rRNA genes were −3.46 and −3.94, and the Y intercepts were 38 and 44.2, respectively.
# DNA Extraction and Quantitative Real-Time PCR. The BDI cultures and DehaloR^2 cultures were shaken vigorously first and then 10 ml of the mixed liquid was removed with a sterile syringe and dispensed into 10 1.5 ml micro centrifuge tubes. These micro centrifuge tubes were then centrifuged at 13,000 rpm for 15 min in order to make a pellet, and the pellet was used for DNA extraction. Qiagen DNeasy Blood & Tissue Kit with modifications to enhance lysis was used for DNA isolation from cultures. DNA samples were stored at −20° C.
# Quantitative real-time PCR (qRT-PCR) was performed for enumeration of general 16S rRNA genes and Dehalococcoides 16S rRNA genes in BDI culture without TCC&TCS, BDI culture with 1.5 μM TCC, BDI culture with 35 μM TCS, D DehaloR̂2 culture without TCC&TCS, DehaloR^2 culture with 1.5 μM TCC and DehaloR̂2^2 culture with 35 μM TCS.
# The primers used for Dehalococcoides 16S rRNA genes were Dhc1200F (5′-[…]-3′) and Dhc1271R (5′-CAACTTCATGCAGGCGGG-3′), and the probe was Dhc1240Pr (FAM-[…]/3-BHQ-1) (He et al., 2003b). The final volume of PCR reactions was 10 μL, and the final concentration of each chemical in a single reaction tube was: 1× RealMasterMix (Fisher Scientific, Pittsburgh, Pa.), 200 nM Probe, 700 nM each Primer, and 130 nM DNA samples. The PCR conditions were as follows: 2 min at 95° C. followed by 40 cycles of 15 s at 95° C., 20 s at 58° C. and 20 s at 68° C.
# The qRT-PCR was carried out in a spectrofluorimetric thermal cycler (Master cycler, epgradient S, Eppendorf). […]
Compound,biodegradation in soil [1],effect on growth / gene copy number of Dehalococcoides in DehaloR̂2 cultures (Dehalococcoides),"Dehalococcoides 16S rRNA gene copies, day 22 (Dehalococcoides; DehaloR̂2 with 1.5 μM TCC)","Dehalococcoides 16S rRNA gene copies, day 22 relative to initial (Dehalococcoides; DehaloR̂2 with 1.5 μM TCC) [times]","Dehalococcoides 16S rRNA gene copies, initial (Dehalococcoides; DehaloR̂2 with 1.5 μM TCC)"
"O=C(Nc1ccc(Cl)cc1)Nc1ccc(Cl)c(Cl)c1 [TCC, 3-(4-chlorophenyl)-1-(3,4-dichlorphenyl) urea]",little biodegradation,did not exert any inhibitory effect on the growth of Dehalococcoides,3.9×10^7 gene copies/ml,11.6,3.3×10^6 gene copies/ml
"Oc1cc(Cl)ccc1Oc1ccc(Cl)cc1Cl [TCS, 5-chloro-2-[2,4-dichloro-phenoxy]-phenol]",little biodegradation,almost remained constant; also recorded: significantly inhibited the growth of Dehalococcoides,,,
